Test results published in patent US11078216B2, “Bisaryl amides as NRF2 activators” (GLAXOSMITHKLINE INTELLECTUAL PROPERTY DEVELOPMENT LIMITED, priority 2016, dated 2021).

System: NRF2 (NQO1 activity as marker for NRF2 activation), BEAS-2B cells
Test: BEAS-2B NQO1 MTT Assay
Format: cell-based
Conditions: Homo sapiens, EC50 of NQO1 specific activity induction, 48 hours incubation, read-out: EC50
Method in brief: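 As a marker of NRF2 activation, NQO1 specific activity was read from the rate of absorbance change at 570 nm in MTT cocktail over 30 minutes. Lysates came from BEAS-2B cells treated for 48 hours at 37° C, and EC50 was derived by 3-parameter fitting.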

SMILES: CC[C@@H]1CN(Cc2cc([C@@H](c3ccc4c(nnn4C)c3C)C(C)(C)C(=O)NC3CCOC3)ccc2C)Cc2cnccc2O1 (stereo partly drawn) [Example 100, (3S)-3-(1,4-Dimethyl-1H-benzo[d][1,2,3]triazol-5-yl)-3-(3-(((R)-2-ethyl-2,3-dihydropyrido[3,44][1,4]oxazepin-4(5H)-yl)methyl)-4-methylphenyl)-2,2-dimethyl-N-(tetrahydrofuran-3-yl)propanamide]
- EC50: 0.1 to 1 µM

SMILES: CC[C@@H]1CN(Cc2cc([C@@H](c3ccc4c(nnn4C)c3C)C(C)(C)C(=O)NC3CCS(=O)(=O)C3)ccc2C)Cc2cnccc2O1 (stereo partly drawn) [Example 101, (3S)-3-(1,4-Dimethyl-1H-benzo[d][1,2,3]triazol-5-yl)-N-(1,1-dioxidotetrahydrothio-phen-3-yl)-3-(3-(((R)-2-ethyl-2,3-dihydropyrido[3,4-f][1,4]oxazepin-4(5H)-yl)methyl)-4-methylphenyl)-2,2-dimethylpropanamide]
- EC50: 0.01 to 0.1 µM

SMILES: CC[C@@H]1CN(Cc2cc([C@@H](c3ccc4c(nnn4CC)c3C)C(C)(C)C(=O)NCCNC)ccc2C)S(=O)(=O)c2cccnc2O1 [Example 102, (S)-3-(3-(((R)-4-Ethyl-1,1-dioxido-3,4-dihydro-2H-pyrido[2,3-b][1,4,5]oxathiazepin-2-yl)methyl)-4-methylphenyl)-3-(1-ethyl-4-methyl-1H-benzo[d][1,2,3]triazol-5-yl)-2,2-dimethyl-N-(2-(methylamino)ethyl) propanamide]
- EC50: 0.01 to 0.1 µM

SMILES: CC[C@H]1Cc2ncccc2S(=O)(=O)N(Cc2cc([C@H](CC(=O)Nc3cccnc3)c3ccc4c(nnn4CC)c3C)ccc2C)C1 [Example 103, (S)-3-(3-(((S)-4-Ethyl-1,1-dioxido-4,5-dihydropyrido[2,3-f][1,2]thiazepin-2(3H)-yl)methyl)-4-methylphenyl)-3-(1-ethyl-4-methyl-1H-benzo[d][1,2,3]triazol-5-yl)-N-(pyridin-3-yl)propanamide]
- EC50: 0.01 to 0.1 µM

SMILES: CC[C@@H]1CN(Cc2cc([C@@H](c3ccc4c(nnn4CC)c3C)C(C)(C)C(=O)NCc3ncc[nH]3)ccc2C)S(=O)(=O)c2cccnc2O1 [Example 104, (S)-N-((1H-Imidazol-2-yl)methyl)-3-(3-(((R)-4-ethyl-1,1-dioxido-3,4-dihydro-2H-pyrido[2,3-b][1,4,5]oxathiazepin-2-yl)methyl)-4-methylphenyl)-3-(1-ethyl-4-methyl-1H-benzo[d][1,2,3]triazol-5-yl)-2,2-dimethylpropanamide]
- EC50: 0.1 to 1 µM

SMILES: CC[C@H]1Cc2ncccc2S(=O)(=O)N(Cc2cc([C@H](CC(=O)Nc3cncnc3)c3ccc4c(nnn4CC)c3C)ccc2C)C1 [Example 105, (S)-3-(3-(((S)-4-Ethyl-1,1-dioxido-4,5-dihydropyrido[2,3-f][1,2]thiazepin-2(3H)-yl)methyl)-4-methylphenyl)-3-(1-ethyl-4-methyl-1H-benzo[d][1,2,3]triazol-5-yl)-N-(pyrimidin-5-yl)propanamide]
- EC50: 0.01 to 0.1 µM

SMILES: CC[C@@H]1CN(Cc2cc([C@@H](c3ccc4c(nnn4CC)c3C)C(C)(C)C(=O)NC3CCS(=O)(=O)C3)ccc2C)S(=O)(=O)c2cccnc2O1 (stereo partly drawn) [Example 106, (3S)-N-(1,1-Dioxidotetrahydrothio-phen-3-yl)-3-(3-(((R)-4-ethyl-1,1-dioxido-3,4-dihydro-2H-pyrido[2,3-b][1,4,5]oxathiazepin-2-yl)methyl)-4-methylphenyl)-3-(1-ethyl-4-methyl-1H-benzo[d][1,2,3]triazol-5-yl)-2,2-dimethylpropanamide]
- EC50: 0.1 to 1 µM

SMILES: CC[C@@H]1CN(Cc2cc([C@H](CC(=O)Nc3ccnnc3)c3ccc4c(nnn4CC)c3C)ccc2C)S(=O)(=O)c2cccnc2O1 [Example 107, (S)-3-(3-(((R)-4-Ethyl-1,1-dioxido-3,4-dihydro-2H-pyrido[2,3-b][1,4,5]oxathiazepin-2-yl)methyl)-4-methylphenyl)-3-(1-ethyl-4-methyl-1H-benzo[d][1,2,3]triazol-5-yl)-N-(pyridazin-4-yl)propanamide]
- EC50: 0.1 to 1 µM

SMILES: CC[C@@H]1CN(Cc2cc([C@H](CC(=O)Nc3ccncn3)c3ccc4c(nnn4CC)c3C)ccc2C)S(=O)(=O)c2cccnc2O1 [Example 108, (S)-3-(3-(((R)-4-Ethyl-1,1-dioxido-3,4-dihydro-2H-pyrido[2,3-b][1,4,5]oxathiazepin-2-yl)methyl)-4-methylphenyl)-3-(1-ethyl-4-methyl-1H-benzo[d][1,2,3]triazol-5-yl)-N-(pyrimidin-4-yl)propanamide]
- EC50: 0.1 to 1 µM

SMILES: CC[C@@H]1CN(Cc2cc([C@H](CC(=O)Nc3cncnc3)c3ccc4c(nnn4CC)c3C)ccc2C)S(=O)(=O)c2cccnc2O1 [Example 109, (S)-3-(3-(((R)-4-Ethyl-1,1-dioxido-3,4-dihydro-2H-pyrido[2,3-b][1,4,5]oxathiazepin-2-yl)methyl)-4-methylphenyl)-3-(1-ethyl-4-methyl-1H-benzo[d][1,2,3]triazol-5-yl)-N-(pyrimidin-5-yl)propanamide]
- EC50: 0.01 to 0.1 µM

SMILES: CC[C@@H]1CN(Cc2cc([C@H](CC(=O)Nc3cccnc3)c3ccc4c(nnn4CC)c3C)ccc2Cl)S(=O)(=O)c2cccnc2O1 [Example 110, (S)-3-(4-Chloro-3-(((R)-4-ethyl-1,1-dioxido-3,4-dihydro-2H-pyrido[2,3-b][1,4,5]oxathiazepin-2-yl)methyl)phenyl)-3-(1-ethyl-4-methyl-1H-benzo[d][1,2,3]triazol-5-yl)-N-(pyridin-3-yl)propanamide]
- EC50: 0.01 to 0.1 µM

SMILES: CC[C@@H]1CN(Cc2cc([C@@H](c3ccc4c(nnn4C)c3C)C(C)(C)C(=O)Nc3ccncc3)ccc2C)Cc2cnccc2O1 [Example 112, (S)-3-(1,4-Dimethyl-1H-benzo[d][1,2,3]triazol-5-yl)-3-(3-(((R)-2-ethyl-2,3-dihydropyrido[3,4-f][1,4]oxazepin-4(5H)-yl)methyl)-4-methylphenyl)-2,2-dimethyl-N-(pyridin-4-yl)propanamide]
- EC50: 0.1 to 1 µM

SMILES: CC[C@@H]1CN(Cc2cc([C@@H](c3ccc4c(nnn4CC)c3C)C(C)(C)C(=O)N[C@H]3CCOC3)ccc2C)S(=O)(=O)c2cccnc2O1 [Example 113, (S)-3-(3-(((R)-4-Ethyl-1,1-dioxido-3,4-dihydro-2H-pyrido[2,3-b][1,4,5]oxathiazepin-2-yl)methyl)-4-methylphenyl)-3-(1-ethyl-4-methyl-1H-benzo[d][1,2,3]triazol-5-yl)-2,2-dimethyl-N-((S)-tetrahydrofuran-3-yl)propanamide]
- EC50: 0.01 to 0.1 µM

SMILES: CC[C@@H]1CN(Cc2cc([C@@H](c3ccc4c(nnn4CC)c3C)C(C)(C)C(=O)N[C@@H]3CCOC3)ccc2C)S(=O)(=O)c2cccnc2O1 [Example 114, (S)-3-(3-(((R)-4-Ethyl-1,1-dioxido-3,4-dihydro-2H-pyrido[2,3-b][1,4,5]oxathiazepin-2-yl)methyl)-4-methylphenyl)-3-(1-ethyl-4-methyl-1H-benzo[d][1,2,3]triazol-5-yl)-2,2-dimethyl-N-((R)-tetrahydrofuran-3-yl)propanamide]
- EC50: 0.01 to 0.1 µM

SMILES: CC[C@@H]1CN(Cc2cc([C@@H](c3ccc4c(nnn4CC)c3C)C(C)(C)C(=O)Nc3cnc(SC)nc3)ccc2C)S(=O)(=O)c2cccnc2O1 [Example 115, (S)-3-(3-(((R)-4-Ethyl-1,1-dioxido-3,4-dihydro-2H-pyrido[2,3-b][1,4,5]oxathiazepin-2-yl)methyl)-4-methylphenyl)-3-(1-ethyl-4-methyl-1H-benzo[d][1,2,3]triazol-5-yl)-2,2-dimethyl-N-(2-(methylthio)pyrimidin-5-yl)propanamide]
- EC50: 0.001 to 0.01 µM
